Values quoted from earlier work, collected in patent publication US9636287B2, “Primecoat compositions for proteinaceous substrates and methods of priming proteinaceous substrates therewith” (Mad River Science, priority 2012, dated 2017).

Test system: EpiDerm Skin Model (normal, human-derived epidermal keratinocytes, NHEK)
Conditions: MatTek Corporation general guideline groupings, example materials

Row | Compound | ET-50 [h] | Expected In vivo Irritancy | ET-50 (hrs)
1 | O=[N+]([O-])O [Conc. Nitric Acid, Nitric Acid] | <0.5 | Severe, probably corrosive | 
2 | CCCCCCCCCCCCOS(=O)(=O)[O-].[Na+] [1% Sodium Dodecyl Sulfate, Sodium Dodecyl Sulfate] |  | Moderate | 0.5-4^ hrs
3 | Triton X-100 [1% Triton X-100] | 4 to 12 | Moderate to Mild | 
